Where two headings read alike, the source gives them in different places.
Legend:
LD50 (toxicity) = conditions: rat, in vivo, rats
[1] = test system: ethionine-induced pancreatitis (serum amylase); assay: Effect on serum amylase elevation in ethionine-induced severe pancreatitis; format: in vivo, female BALB/c mice; conditions: for serum amylase level, 0 Hr: 0 Hr (start of ethionine-supplemented food, before dosing at 12 h); for serum amylase level, 0 Hr / serum amylase level, 24 Hr / serum amylase level, 48 Hr: p.o., EPC-K 141 mg/10 ml/kg, camostat 100 mg/10 ml/kg, mean ± S.E.; for serum amylase level, 24 Hr: 24 h after beginning of ethionine-supplemented food; for serum amylase level, 48 Hr: 48 h after beginning of ethionine-supplemented food, *1 (EPC-K): p < 0.01 vs distilled water
Protocol: The therapeutic efficacy of the compound was tested in ethionine-induced pancreatitis which is a model of severe human pancreatitis. The efficacy evaluation was based on the degree of inhibition of the release of amylase into blood which is an indicator of pancreatitis.
(1) Investigational Substance
L-Ascorbyl DL-α-tocopheryl phosphate potassium (briefly, EPC-K) 141 mg/10 ml/kg, p.o.
Camostat monomethanesulfonate (Ono Pharmaceutical) 100 mg/10 ml/kg, p.o.
Animals used: Thirty female BALB/c mice weighing about 18 g as purchased from Japan SLC were used in this experiment. The mice were accommodated in an animal room controlled at 24°±4° C. and 55±15% R. H. and while the animals in the ethionine-induced pancreatitis groups were given low-choline, 0.54 ethionine-supplemented food (prepared by SLC) ad libitum, the animals in the untreated control group were given Labo MR Stock (tradename) (Nihon Nosan Kogyo) ad libitum. Water was freely available for animals in the ethionine pancreatitis groups and the untreated group. The mice were deprived of food 12 hours before commencement of feeding.
Method: Each test substance was administered 12 hours after the beginning of intake of ethionine-supplemented food. Blood sampling was made 24 and 48 hours after the beginning of intake of ethionine-supplemented food and the serum amylase levels were determined.

| SMILES | LD50 (LD50 (toxicity); iv, i.v., read-out: LD50 i.v.) | LD50 (LD50 (toxicity); po, p.o., read-out: LD50 p.o.) | serum amylase level, 0 Hr [1] | serum amylase level, 24 Hr [1] | serum amylase level, 48 Hr [1] | inhibition of serum amylase elevation (in words) ([1]; 48 h, compared with distilled water group) |
| --- | --- | --- | --- | --- | --- | --- |
| Cc1c(C)c2c(c(C)c1OP(=O)(O)OC1=C(O)[C@@H]([C@@H](O)CO)OC1=O)CCC(C)(CCCC(C)CCCC(C)CCCC(C)C)O2 (mixture of isomers) [EPC-K, L-Ascorbyl DL-α-tocopheryl phosphate potassium] | ≥ 100 mg/kg | ≥ 5000 mg/kg | 14573 ± 3132 mU/ml | 12926 ± 2217 mU/ml | 16257 ± 9763 mU/ml |  |
| CN(C)C(=O)COC(=O)Cc1ccc(OC(=O)c2ccc(NC(=N)N)cc2)cc1 [Camostat monomethanesulfonate] |  |  | 13978 ± 1012 mU/ml | 12628 ± 1542 mU/ml | 36288 ± 13921 mU/ml | no inhibitory effect on amylase elevation |
